For ten compounds, IC50 results are on record in ChEMBL document CHEMBL1144453, “Ligand binding analysis for human alpha5beta1 integrin: strategies for designing new alpha5beta1 integrin antagonists” (J Med Chem, 2005).

Experiment [1] concerns the target Integrin alpha-V/beta-3 (Homo sapiens, UniProt P05106+P06756). In words: Inhibition of fibrinogen binding to alphaV-beta3 integrin receptor. Type of experiment: protein-complex assay.
Experiment [2] concerns the target Integrin alpha-IIb/beta-3 (Homo sapiens, UniProt P05106+P08514). The experiment can be described thus: Inhibition of alpha IIb beta3 integrin receptor in human platelet rich plasma.
In experiment [3] the target is Integrin alpha-5/beta-1 (Homo sapiens, UniProt P05556+P08648). The experiment can be described thus: Inhibition of alpha5-beta1 integrin receptor in ELISA. The format is protein-complex assay. (In general: In an ELISA, binding on a coated surface is turned into a signal by an enzyme label.)
Integrin alpha-5/beta-1, sequence (P05556 21-798 limits assumed): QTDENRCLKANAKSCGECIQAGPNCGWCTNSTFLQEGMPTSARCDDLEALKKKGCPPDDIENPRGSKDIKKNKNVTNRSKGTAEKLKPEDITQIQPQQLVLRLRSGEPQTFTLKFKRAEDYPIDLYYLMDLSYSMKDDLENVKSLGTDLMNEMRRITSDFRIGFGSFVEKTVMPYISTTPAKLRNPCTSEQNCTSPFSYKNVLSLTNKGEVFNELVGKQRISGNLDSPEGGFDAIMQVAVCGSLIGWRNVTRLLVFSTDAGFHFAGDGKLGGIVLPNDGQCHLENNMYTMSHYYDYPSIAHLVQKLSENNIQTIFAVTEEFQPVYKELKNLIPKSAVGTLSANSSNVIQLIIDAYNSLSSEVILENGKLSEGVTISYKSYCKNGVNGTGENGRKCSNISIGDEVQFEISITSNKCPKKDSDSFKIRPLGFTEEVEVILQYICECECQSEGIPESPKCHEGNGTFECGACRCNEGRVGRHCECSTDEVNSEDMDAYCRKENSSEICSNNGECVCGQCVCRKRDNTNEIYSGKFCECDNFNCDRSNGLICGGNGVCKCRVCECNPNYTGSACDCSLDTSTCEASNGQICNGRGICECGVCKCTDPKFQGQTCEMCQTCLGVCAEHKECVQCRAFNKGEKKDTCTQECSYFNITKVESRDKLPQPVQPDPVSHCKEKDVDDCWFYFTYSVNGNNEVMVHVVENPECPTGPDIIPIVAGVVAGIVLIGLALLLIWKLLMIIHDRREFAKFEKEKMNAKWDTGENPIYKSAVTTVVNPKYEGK
Integrin alpha-5/beta-1, sequence (P08648 42-894 limits assumed): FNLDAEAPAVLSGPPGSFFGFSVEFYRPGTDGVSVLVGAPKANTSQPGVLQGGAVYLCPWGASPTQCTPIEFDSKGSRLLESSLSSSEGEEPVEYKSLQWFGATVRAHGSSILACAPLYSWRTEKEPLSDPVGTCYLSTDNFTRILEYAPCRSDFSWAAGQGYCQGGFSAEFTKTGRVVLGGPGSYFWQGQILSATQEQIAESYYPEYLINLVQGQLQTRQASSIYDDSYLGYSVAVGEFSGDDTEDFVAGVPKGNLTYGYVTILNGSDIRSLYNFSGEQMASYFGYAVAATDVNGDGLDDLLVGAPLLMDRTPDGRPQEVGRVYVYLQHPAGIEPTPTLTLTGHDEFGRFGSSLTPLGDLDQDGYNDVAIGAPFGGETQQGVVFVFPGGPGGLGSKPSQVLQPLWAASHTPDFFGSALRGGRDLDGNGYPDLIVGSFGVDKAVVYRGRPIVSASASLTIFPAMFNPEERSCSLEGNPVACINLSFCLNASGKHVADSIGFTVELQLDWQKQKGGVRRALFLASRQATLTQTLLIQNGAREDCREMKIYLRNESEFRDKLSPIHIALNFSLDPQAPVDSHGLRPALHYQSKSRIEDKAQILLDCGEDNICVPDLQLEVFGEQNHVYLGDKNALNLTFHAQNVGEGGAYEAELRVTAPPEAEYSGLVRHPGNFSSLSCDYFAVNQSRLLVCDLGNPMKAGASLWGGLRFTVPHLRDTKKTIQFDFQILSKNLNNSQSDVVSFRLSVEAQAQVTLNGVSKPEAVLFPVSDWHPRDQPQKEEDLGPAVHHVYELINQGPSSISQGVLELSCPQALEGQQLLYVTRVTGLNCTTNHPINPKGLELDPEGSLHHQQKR
Integrin alpha-5/beta-1, sequence (P08648 895-1049 limits assumed): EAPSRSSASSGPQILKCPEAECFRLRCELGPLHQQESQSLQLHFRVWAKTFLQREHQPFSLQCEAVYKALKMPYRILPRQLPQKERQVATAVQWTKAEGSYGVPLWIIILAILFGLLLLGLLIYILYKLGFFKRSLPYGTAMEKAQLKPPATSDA

pIC50: −log10 of the molar value. Where only a bound is given, the exact number is not on record here.

Integrin alpha-IIb/beta-3, sequence (P05106 27-788 limits assumed): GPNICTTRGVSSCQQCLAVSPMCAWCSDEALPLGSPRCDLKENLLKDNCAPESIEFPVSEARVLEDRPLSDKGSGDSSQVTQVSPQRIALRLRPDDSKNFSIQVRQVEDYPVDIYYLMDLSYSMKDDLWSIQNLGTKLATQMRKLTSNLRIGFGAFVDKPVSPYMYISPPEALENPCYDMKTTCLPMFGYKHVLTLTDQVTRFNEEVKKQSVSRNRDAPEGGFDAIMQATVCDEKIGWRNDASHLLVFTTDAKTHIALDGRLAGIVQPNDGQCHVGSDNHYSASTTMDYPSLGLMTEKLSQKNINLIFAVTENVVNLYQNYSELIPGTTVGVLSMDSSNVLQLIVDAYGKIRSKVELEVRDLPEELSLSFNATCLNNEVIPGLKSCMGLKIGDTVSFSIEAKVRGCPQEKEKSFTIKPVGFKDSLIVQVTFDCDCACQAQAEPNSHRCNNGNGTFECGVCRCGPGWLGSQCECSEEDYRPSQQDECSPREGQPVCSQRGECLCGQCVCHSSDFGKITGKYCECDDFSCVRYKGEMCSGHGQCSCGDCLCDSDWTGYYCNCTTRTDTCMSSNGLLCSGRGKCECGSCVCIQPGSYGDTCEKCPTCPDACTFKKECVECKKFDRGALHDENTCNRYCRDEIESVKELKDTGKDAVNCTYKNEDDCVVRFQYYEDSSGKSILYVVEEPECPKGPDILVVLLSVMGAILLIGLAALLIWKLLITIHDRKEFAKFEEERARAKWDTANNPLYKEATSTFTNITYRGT
Integrin alpha-IIb/beta-3, sequence (P08514 32-887 limits assumed): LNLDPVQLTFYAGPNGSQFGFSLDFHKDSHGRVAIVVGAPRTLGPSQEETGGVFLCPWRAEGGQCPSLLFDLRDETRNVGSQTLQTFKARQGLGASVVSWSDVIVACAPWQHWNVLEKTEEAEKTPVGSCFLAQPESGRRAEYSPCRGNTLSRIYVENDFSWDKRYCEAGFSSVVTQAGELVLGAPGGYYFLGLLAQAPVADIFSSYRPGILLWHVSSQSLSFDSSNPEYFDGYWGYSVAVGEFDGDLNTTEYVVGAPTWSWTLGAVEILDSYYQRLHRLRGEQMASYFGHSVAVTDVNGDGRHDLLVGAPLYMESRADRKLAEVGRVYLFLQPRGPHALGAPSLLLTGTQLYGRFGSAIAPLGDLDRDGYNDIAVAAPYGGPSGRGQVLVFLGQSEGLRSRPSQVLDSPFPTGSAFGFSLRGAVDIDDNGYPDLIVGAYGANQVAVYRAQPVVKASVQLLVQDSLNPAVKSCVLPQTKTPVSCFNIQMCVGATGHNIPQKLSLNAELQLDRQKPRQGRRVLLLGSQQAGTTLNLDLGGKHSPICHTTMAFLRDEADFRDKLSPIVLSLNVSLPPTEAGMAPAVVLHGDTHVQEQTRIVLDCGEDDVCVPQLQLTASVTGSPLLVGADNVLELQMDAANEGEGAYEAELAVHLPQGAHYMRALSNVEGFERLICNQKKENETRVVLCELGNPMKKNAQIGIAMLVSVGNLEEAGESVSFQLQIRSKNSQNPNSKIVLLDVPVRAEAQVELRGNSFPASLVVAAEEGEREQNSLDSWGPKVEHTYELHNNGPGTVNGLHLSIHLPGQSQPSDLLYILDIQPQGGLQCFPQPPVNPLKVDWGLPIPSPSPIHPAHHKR
Integrin alpha-IIb/beta-3, sequence (P08514 891-1039 limits assumed): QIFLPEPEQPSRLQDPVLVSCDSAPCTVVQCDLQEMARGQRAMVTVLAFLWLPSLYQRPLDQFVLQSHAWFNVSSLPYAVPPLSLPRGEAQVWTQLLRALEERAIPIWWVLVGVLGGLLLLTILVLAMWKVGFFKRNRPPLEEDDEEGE
Integrin alpha-V/beta-3, sequence (P05106 27-788 limits assumed): as the sequence (P05106 27-788 limits assumed) above
Integrin alpha-V/beta-3, sequence (P06756 31-889 limits assumed): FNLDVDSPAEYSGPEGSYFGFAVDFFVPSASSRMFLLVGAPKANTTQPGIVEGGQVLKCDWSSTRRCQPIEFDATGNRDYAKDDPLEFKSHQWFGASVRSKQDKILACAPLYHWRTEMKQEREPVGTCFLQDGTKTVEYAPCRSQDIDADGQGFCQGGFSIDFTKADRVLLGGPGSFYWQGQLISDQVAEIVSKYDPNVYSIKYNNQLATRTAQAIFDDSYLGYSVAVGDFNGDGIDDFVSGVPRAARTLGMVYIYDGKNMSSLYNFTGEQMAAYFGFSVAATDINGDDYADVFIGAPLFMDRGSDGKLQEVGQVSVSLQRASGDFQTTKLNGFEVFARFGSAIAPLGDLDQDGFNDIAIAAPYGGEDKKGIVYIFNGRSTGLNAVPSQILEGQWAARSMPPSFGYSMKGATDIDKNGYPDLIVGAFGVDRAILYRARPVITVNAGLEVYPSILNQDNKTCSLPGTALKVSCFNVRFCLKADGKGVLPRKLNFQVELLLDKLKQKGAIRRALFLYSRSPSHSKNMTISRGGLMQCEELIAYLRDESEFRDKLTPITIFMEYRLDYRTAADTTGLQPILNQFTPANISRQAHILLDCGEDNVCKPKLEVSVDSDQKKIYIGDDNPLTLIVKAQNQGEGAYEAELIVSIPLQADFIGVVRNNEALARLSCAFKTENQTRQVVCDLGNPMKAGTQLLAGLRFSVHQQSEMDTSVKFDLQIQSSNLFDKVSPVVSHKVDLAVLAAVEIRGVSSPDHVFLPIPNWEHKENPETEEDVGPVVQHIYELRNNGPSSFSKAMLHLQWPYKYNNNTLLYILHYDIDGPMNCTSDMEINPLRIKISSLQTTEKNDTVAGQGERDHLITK
Integrin alpha-V/beta-3, sequence (P06756 891-1048 limits assumed): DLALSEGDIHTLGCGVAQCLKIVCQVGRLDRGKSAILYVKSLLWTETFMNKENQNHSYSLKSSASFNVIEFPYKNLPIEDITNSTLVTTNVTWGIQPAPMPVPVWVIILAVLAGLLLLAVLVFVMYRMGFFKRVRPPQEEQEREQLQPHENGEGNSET

Turning to `CCCCOC(=O)N1C[C@@]2(CC(C(=O)NC[C@H](NS(=O)(=O)c3c(C)cc(C)cc3C)C(=O)O)=NO2)C[C@H]1CNc1nc2ccccc2[nH]1`, the pIC50 in experiment [1] was 7.06; in experiment [2] it was less than 4.00.

With `Cc1cc(C)c(S(=O)(=O)N[C@@H](CNC(=O)C2=NO[C@]3(CN[C@H](CNc4ncc[nH]4)C3)C2)C(=O)O)c(C)c1`, the figures for the negative-log IC50 (pIC50) in experiment [1] and in experiment [2] were 6.74 and 5.85, respectively.

`CCCCOC(=O)N1C[C@@]2(CC(C(=O)NC[C@H](NS(=O)(=O)c3c(C)cc(C)cc3C)C(=O)O)=NO2)C[C@H]1CNc1ncc[nH]1`: the negative logarithm of the IC50 (pIC50) in experiment [1] is 6.89; in experiment [2] it was 4.96.

As to `Cc1cc(C)c(S(=O)(=O)N[C@@H](CNC(=O)C2=NO[C@]3(C2)C[C@@H](CNc2ccccn2)N(C(=O)OCc2ccccc2)C3)C(=O)O)c(C)c1`, the pIC50 in experiment [1] was 7.31; in experiment [2], less than 4.00.

As for `Cc1cc(C)c(S(=O)(=O)N[C@@H](CNC(=O)C2=NO[C@]3(C2)C[C@@H](CNc2ncc[nH]2)N(C(=O)OCc2ccccc2)C3)C(=O)O)c(C)c1`, the pIC50 was 7.39 in experiment [1] and 4.47 in experiment [2].

For `Cc1cc(C)c(S(=O)(=O)N[C@@H](CNC(=O)C2=NO[C@]3(C2)C[C@@H](CNc2ncc[nH]2)N(C(=O)OCc2cccnc2)C3)C(=O)O)c(C)c1`, the negative-log IC50 (pIC50) in experiment [1] was 7.49; in experiment [2], 5.25.

For `COC(=O)N1C[C@@]2(CC(C(=O)NC[C@H](NS(=O)(=O)c3c(C)cc(C)cc3C)C(=O)O)=NO2)C[C@H]1CNc1ncc[nH]1`, the pIC50 in experiment [1] was 7.24; in experiment [2], 5.14.

On to `Cc1cc(C)c(S(=O)(=O)N[C@@H](CNC(=O)C2=NO[C@]3(C2)C[C@@H](CNC2NC=CN2)N(C(=O)OCc2ccccc2)C3)C(=O)O)c(C)c1`, for which the pIC50 in experiment [3] was 7.89; in experiment [1], 7.24; in experiment [2] it was 5.14.

As for `COC(=O)N1C[C@@]2(CC(C(=O)NC[C@H](NS(=O)(=O)c3c(C)cc(C)cc3C)C(=O)O)=NO2)C[C@H]1CNc1nc2ccccc2[nH]1`, the pIC50 is 7.47 in experiment [1] and less than 4.00 in experiment [2].

For the compound `Cc1cc(C)c(S(=O)(=O)N[C@@H](CNC(=O)C2=NOC3(C2)C[C@@H](CNC2NC=CN2)N(C(=O)OCc2ccccc2)C3)C(=O)O)c(C)c1` (single isomer, unassigned), the pIC50 in experiment [3] is 5.92; in experiment [1], less than 6.00; in experiment [2], 5.04.

By pIC50 is commonly meant the IC50 on a negative log10 scale, so that one unit is a factor of ten. High values mean a small IC50, low ones a large IC50.
